Patent US7517874B2 (priority 2007, dated 2009)

Experiments:
rat CB2 receptor (rCB2) = target: T1, rat CB2 receptor (rCB2) (Rattus norvegicus, UniProt Q9QZN9); assay: cell-based; type: cell-based; conditions: for +/− RCB2: agonist or inverse agonist at rCB2
T1 sequence (Q9QZN9 1-360): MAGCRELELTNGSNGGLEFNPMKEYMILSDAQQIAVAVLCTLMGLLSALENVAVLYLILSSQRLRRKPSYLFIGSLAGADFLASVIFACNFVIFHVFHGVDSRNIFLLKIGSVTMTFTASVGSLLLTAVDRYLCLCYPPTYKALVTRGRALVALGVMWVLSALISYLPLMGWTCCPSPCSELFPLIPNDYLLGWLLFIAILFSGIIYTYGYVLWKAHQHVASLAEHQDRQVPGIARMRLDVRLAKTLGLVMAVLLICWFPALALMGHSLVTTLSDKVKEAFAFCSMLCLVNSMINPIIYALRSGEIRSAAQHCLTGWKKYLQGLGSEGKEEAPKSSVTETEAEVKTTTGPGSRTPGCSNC
In short: (§1)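 Readout: LANCE TR-FRET cAMP, back-calculated from a concurrent standard curve and scaled between forskolin-only and forskolin + 1 μM CP55,940 wells. EC50 and intrinsic activity came from four-parameter fits.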

[1] = target: human CB1 receptor (hCB1) (Homo sapiens, UniProt P21554); assay: cell-based; type: cell-based
In short: as §1

Sequence of human CB1 receptor (hCB1) (P21554 whole entry): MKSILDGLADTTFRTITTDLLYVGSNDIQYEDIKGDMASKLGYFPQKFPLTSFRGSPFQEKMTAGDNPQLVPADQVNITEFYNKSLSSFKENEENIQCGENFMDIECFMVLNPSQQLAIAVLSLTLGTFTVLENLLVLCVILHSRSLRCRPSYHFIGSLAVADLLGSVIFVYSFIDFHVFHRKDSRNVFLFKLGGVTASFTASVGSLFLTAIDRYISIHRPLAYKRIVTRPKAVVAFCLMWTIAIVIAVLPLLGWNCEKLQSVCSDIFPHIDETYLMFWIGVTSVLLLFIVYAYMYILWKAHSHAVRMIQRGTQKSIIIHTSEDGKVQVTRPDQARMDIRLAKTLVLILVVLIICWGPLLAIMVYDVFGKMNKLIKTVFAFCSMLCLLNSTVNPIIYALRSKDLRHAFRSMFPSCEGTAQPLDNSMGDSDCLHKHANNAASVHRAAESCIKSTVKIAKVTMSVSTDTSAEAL

Structure (SMILES)	EC50 (rat CB2 receptor (rCB2)) [µM]	EC50 [1] [µM]	+/− RCB2 (rat CB2 receptor (rCB2))
CNC(=O)[C@H](NC(=O)c1nc(-c2ccccc2)n2c1CN(C)CC2)C(C)(C)C [Compound 302, (R)-N-(3,3-dimethyl-1-(methylamino)-1-oxobutan-2-yl)-7-methyl-3-phenyl-5,6,7,8-tetrahydroimidazo[1,5-a]pyrazine-1-carboxamide]	> 10	> 10	
CNC(=O)[C@@H](NC(=O)c1nc(C2CCCC2)n2c1CN(C)CC2)C(C)(C)C [Compound 303, (S)-3-cyclopentyl-N-(3,3-dimethyl-1-(methylamino)-1-oxobutan-2-yl)-7-methyl-5,6,7,8-tetrahydroimidazo [1,5-a]pyrazine-1-carboxamide]		> 10	+
CCCc1nc(C(=O)N[C@H](C(=O)NC)C(C)(C)C)c2n1CCN(C)C2 [Compound 304, (S)-N-(3,3-dimethyl-1-(methylamino)-1-oxobutan-2-yl)-7-methyl-3-propyl-5,6,7,8-tetrahydroimidazo[1,5-a]pyrazine-1-carboxamide]		> 10	+
CNC(=O)[C@@H](NC(=O)c1nc(C2CCCCC2)n2c1CN(C)CC2)C(C)(C)C [Compound 305, (S)-3-cyclohexyl-N-(3,3-dimethyl-1-(methylamino)-1-oxobutan-2-yl)-7-methyl-5,6,7,8-tetrahydroimidazo[1,5-a]pyrazine-1-carboxamide]		> 10	+
CNC(=O)[C@@H](NC(=O)c1nc(CC(C)C)n2c1CN(C)CC2)C(C)(C)C [Compound 306, (S)-N-(3,3-dimethyl-1-(methylamino)-1-oxobutan-2-yl)-3-isobutyl-7-methyl-5,6,7,8-tetrahydroimidazo[1,5-a]pyrazine-1-carboxamide]		> 10	+
CNC(=O)[C@@H](NC(=O)c1nc(CCCN2CCCCC2)n2c1CN(C)CC2)C(C)(C)C [Compound 307, (S)-N-(3,3-dimethyl-1-(methylamino)-1-oxobutan-2-yl)-7-methyl-3-(3-(piperidin-1-yl)propyl)-5,6,7,8-tetrahydroimidazo[1,5-a]pyrazine-1-carboxamide]		> 10	+
CNC(=O)[C@@H](NC(=O)c1nc(CCCN2CCCC2)n2c1CN(C)CC2)C(C)(C)C [Compound 308, (S)-N-(3,3-dimethyl-1-(methylamino)-1-oxobutan-2-yl)-7-methyl-3-(3-(pyrrolidin-1-yl)propyl)-5,6,7,8-tetrahydroimidazo[1,5-a]pyrazine-1-carboxamide]		> 10	−
CNC(=O)[C@@H](NC(=O)c1nc(CCCN2CCOCC2)n2c1CN(C)CC2)C(C)(C)C [Compound 309, (S)-N-(3,3-dimethyl-1-(methylamino)-1-oxobutan-2-yl)-7-methyl-3-(3-morpholinopropyl)-5,6,7,8-tetrahydroimidazo[1,5-a]pyrazine-1-carboxamide]	> 10	> 10	
CCc1nc(C(=O)N[C@H](C(=O)NC)C(C)(C)C)c2n1CCN(C)C2 [Compound 310, (S)-N-(3,3-dimethyl-1-(methylamino)-1-oxobutan-2-yl)-3-ethyl-7-methyl-5,6,7,8-tetrahydroimidazo[1,5-a]pyrazine-1-carboxamide]		> 10	−
CNC(=O)[C@@H](NC(=O)c1nc(-c2ccccc2)n2c1CN(C(=O)OC(C)(C)C)CCC2)C(C)(C)C [Compound 312, (S)-tert-butyl 1-(3,3-dimethyl-1-(methylamino)-1-oxobutan-2-ylcarbamoyl)-3-phenyl-6,7-dihydro-5H-imidazo[1,5-a][1,4]diazepine-8(9H)-carboxylate]		> 10	−
CNC(=O)[C@@H](NC(=O)c1nc(-c2ccc(Cl)cc2F)n2c1CN(C(=O)OC(C)(C)C)CCC2)C(C)(C)C [Compound 313]		> 10	−
CNC(=O)[C@@H](NC(=O)c1nc(-c2ccccc2)n2c1CNCCC2)C(C)(C)C [Compound 314, (S)-N-(3,3-dimethyl-1-(methylamino)-1-oxobutan-2-yl)-3-phenyl-6,7,8,9-tetrahydro-5H-imidazo[1,5-a][1,4]diazepine-1-carboxamide]		> 10	−
CNC(=O)[C@@H](NC(=O)c1nc(-c2ccc(Cl)cc2F)n2c1CNCCC2)C(C)(C)C [Compound 315, (S)-3-(4-chloro-2-fluorophenyl)-N-(3,3-dimethyl-1-(methylamino)-1-oxobutan-2-yl)-6,7,8,9-tetrahydro-5H-imidazo[1,5-a][1,4]diazepine-1-carboxamide]	> 10	> 10	
CNC(=O)[C@@H](NC(=O)c1nc(-c2ccc(C)cc2F)n2c1CNCCC2)C(C)(C)C [Compound 316, (S)-N-(3,3-dimethyl-1-(methylamino)-1-oxobutan-2-yl)-3-(2-fluoro-4-methylphenyl)-6,7,8,9-tetrahydro-5H-imidazo[1,5-a][1,4]diazepine-1-carboxamide]		> 10	−
CCN1CCCn2c(-c3ccccc3)nc(C(=O)N[C@H](C(=O)NC)C(C)(C)C)c2C1 [Compound 318, (S)-N-(3,3-dimethyl-1-(methylamino)-1-oxobutan-2-yl)-8-ethyl-3-phenyl-6,7,8,9-tetrahydro-5H-imidazo[1,5-a][1,4]diazepine-1-carboxamide]		> 10	+
CNC(=O)[C@@H](NC(=O)c1nc(-c2ccccc2)n2c1CN(C(C)C)CCC2)C(C)(C)C [Compound 319, (S)-N-(3,3-dimethyl-1-(methylamino)-1-oxobutan-2-yl)-8-isopropyl-3-phenyl-6,7,8,9-tetrahydro-5H-imidazo[1,5-a][1,4]diazepine-1-carboxamide]	> 10	> 10	
CNC(=O)[C@@H](NC(=O)c1nc(-c2ccccc2)n2c1CN(CC(C)C)CCC2)C(C)(C)C [Compound 320, (S)-N-(3,3-dimethyl-1-(methylamino)-1-oxobutan-2-yl)-8-isobutyl-3-phenyl-6,7,8,9-tetrahydro-5H-imidazo[1,5-a][1,4]diazepine-1-carboxamide]		> 10	−
CNC(=O)[C@@H](NC(=O)c1nc(-c2ccccc2)n2c1CN(CC1CC1)CCC2)C(C)(C)C [Compound 321, (S)-8-(cyclopropylmethyl)-N-(3,3-dimethyl-1-(methylamino)-1-oxobutan-2-yl)-3-phenyl-6,7,8,9-tetrahydro-5H-imidazo[1,5-a][1,4]diazepine-1-carboxamide]		> 10	−
CNC(=O)[C@@H](NC(=O)c1nc(-c2ccc(Cl)cc2F)n2c1CN(CC(C)C)CCC2)C(C)(C)C [Compound 322, (S)-3-(4-chloro-2-fluorophenyl)-N-(3,3-dimethyl-1-(methylamino)-1-oxobutan-2-yl)-8-isobutyl-6,7,8,9-tetrahydro-5H-imidazo[1,5-a][1,4]diazepine-1-carboxamide]		> 10	−
CNC(=O)[C@@H](NC(=O)c1nc(-c2ccc(C)cc2F)n2c1CN(CC1CC1)CCC2)C(C)(C)C [Compound 323, (S)-8-(cyclopropylmethyl)-N-(3,3-dimethyl-1-(methylamino)-1-oxobutan-2-yl)-3-(2-fluoro-4-methylphenyl)-6,7,8,9-tetrahydro-5H-imidazo[1,5-a][1,4]diazepine-1-carboxamide]		> 10	−
CNC(=O)[C@@H](NC(=O)c1nc(-c2ccccc2OC)n2c1CN(C)CCC2)C(C)(C)C [Compound 325, (S)-N-(3,3-dimethyl-1-(methylamino)-1-oxobutan-2-yl)-3-(2-methoxyphenyl)-8-methyl-6,7,8,9-tetrahydro-5H-imidazo[1,5-a][1,4]diazepine-1-carboxamide]		> 10	+
CNC(=O)[C@@H](NC(=O)c1nc(-c2cc(Cl)ccc2OC)n2c1CN(C)CCC2)C(C)(C)C [Compound 327, (S)-3-(5-chloro-2-methoxyphenyl)-N-(3,3-dimethyl-1-(methylamino)-1-oxobutan-2-yl)-8-methyl-6,7,8,9-tetrahydro-5H-imidazo[1,5-a][1,4]diazepine-1-carboxamide]		> 10	+
CNC(=O)[C@@H](NC(=O)c1nc(-c2cccc(C#N)c2)n2c1CN(C)CCC2)C(C)(C)C [Compound 328, (S)-3-(3-cyanophenyl)-N-(3,3-dimethyl-1-(methylamino)-1-oxobutan-2-yl)-8-methyl-6,7,8,9-tetrahydro-5H-imidazo[1,5-a][1,4]diazepine-1-carboxamide]		> 10	+
CNC(=O)[C@@H](NC(=O)c1nc(-c2ccsc2)n2c1CN(C)CCC2)C(C)(C)C [Compound 329, (S)-N-(3,3-dimethyl-1-(methylamino)-1-oxobutan-2-yl)-8-methyl-3-(thiophen-3-yl)-6,7,8,9-tetrahydro-5H-imidazo[1,5-a][1,4]diazepine-1-carboxamide]		> 10	+
CNC(=O)[C@@H](NC(=O)c1nc(-c2ccc(C(F)(F)F)cc2)n2c1CN(C)CCC2)C(C)(C)C [Compound 330, (S)-N-(3,3-dimethyl-1-(methylamino)-1-oxobutan-2-yl)-8-methyl-3-(4-(trifluoromethyl)phenyl)-6,7,8,9-tetrahydro-5H-imidazo[1,5-a][1,4]diazepine-1-carboxamide]		> 10	−
